According to publication PMC6033897, “Characterization and Validation of a Human 3D Cardiac Microtissue for the Assessment of Changes in Cardiac Pathology” (Scientific Reports, 2018):
Counter-ions that a name gives are not always drawn.

How the values were obtained:
cardiac microtissues [1] = experiment: Mitochondrial membrane potential (ΔΨm, TMRE imaging) in cardiac microtissues; format: cell-based, human; settings: cardiac microtissues; for IC50: 72 hours, geometric mean, read-out: Mitochondrial membrane potential (ΔΨm) IC50
Protocol: (§1) Cardiac microtissues were stained with fluorescent probes in cell culture media, 40 µl media was removed and 40 µl of 2x multiplexed dye was added back to the well for 30 minutes at 37 °C, 5% CO2. Fluorescent probes used were ER-Tracker blue (2 µM) to measure endoplasmic reticulum (ER) integrity and TMRE (500 nM) to measure mitochondrial membrane potential (ΔΨm). All microtissues were imaged on a Cell Voyager 7000 (YokogawaInc.) and images captured using a 20x objective (Olympus UPLSAPO 0.75 NA, 0.6 mm WD), with a 2 × 2 bin. Plates are imaged live, prior to use the stage temperature was set to 37 °C and CO2 level at 5%. […] Transmitted light images were acquired using a 100 W Halogen lamp as an illumination source. Images were captured over a 60 μm range in the Z-axis with a 5 μm interval between slices. Z-stack images were output as a maximal projection of multiple z-planes.
(§2) Maximum projection images were imported and analysed in the Columbus Platform (v2.7, Perkin Elmer Inc.).

cardiac microtissues [2] = experiment: Cellular viability (ATP depletion, CellTiter-Glo) in cardiac microtissues; format: cell-based, human; settings: cardiac microtissues; for IC50: read-out: Cellular viability (ATP depletion) IC50
Protocol: (§3) Cellular ATP concentrations were assessed using the CellTiter-Glo® Luminescent Cell Viability Assay as per the manufacturer’s instructions (Promega); for cardiac microtissues 40 µl media was removed prior to the addition of 40 µl CellTiter-Glo® reagent. […] Data from the same treatment on minimum of 3 occasions were averaged to represent the mean ATP measurement.

cardiac microtissues [3] = experiment: ER integrity (ER-Tracker blue imaging) in cardiac microtissues; format: cell-based, human; settings: cardiac microtissues; for IC50: 72 hours, geometric mean, read-out: ER integrity IC50
Protocol: as §1, §2

[4] = total Cmax, therapeutically relevant maximum total plasma concentration; source not given; cited from earlier work
hCF [5] = experiment: Cellular viability (ATP depletion) in 2D monoculture; settings: Homo sapiens, read-out: Cellular viability (ATP depletion) IC50
hiPS-CM [6] = experiment: ER integrity in 2D monoculture; format: cell-based; settings: Homo sapiens
Protocol: (§4) For 2D monoculture, hiPS-CM, hCMEC and hCF were cultured as described above and seeded in CellCarrier-384 Ultra microplates (Perkin Elmer, 6057300) at 5000, 2500 and 1750 cells/well respectively.
(§5) Monoculture cells were stained with fluorescent probes diluted in cell culture media, 25 µl media was removed and 25 µl of 2x multiplexed dye was added back to the well for 15 minutes at 37 °C, 5% CO2.

hCMEC [7] = experiment: ER integrity in 2D monoculture; format: cell-based; settings: Homo sapiens
Protocol: as §4, §5

hCF [8] = experiment: Mitochondrial membrane potential (ΔΨm) in 2D monoculture; settings: Homo sapiens, read-out: Mitochondrial membrane potential (ΔΨm) IC50
hCF [9] = experiment: ER integrity in 2D monoculture; settings: Homo sapiens, read-out: ER integrity IC50
hiPS-CM [10] = experiment: Cellular viability (ATP depletion) in 2D monoculture; format: cell-based; settings: Homo sapiens
Protocol: as §4, §3

hCMEC [11] = experiment: as above; format: cell-based; settings: Homo sapiens
Protocol: as §4, §3

hiPS-CM [12] = experiment: Mitochondrial membrane potential (ΔΨm) in 2D monoculture; format: cell-based; settings: Homo sapiens
Protocol: as §4, §5

hCMEC [13] = experiment: as above; format: cell-based; settings: Homo sapiens
Protocol: as §4, §5

hESC-CMs = settings: read-out: reported IC50 value in hESC-CMs; cited from earlier work
H9c2 cells = tested on: H9c2 cells; set-up: method as in PMID 18664550; settings: read-out: reported IC50 value in H9c2 cells; cited from earlier work
cardiac microtissues [14] = experiment: Histopathology (H&E, IHC, IF) of treated cardiac microtissues; format: cell-based, human; settings: 24 hours; sunitinib 100 µM; doxorubicin 0.1 and 30 µM (Fig. 2)
Protocol: Microtissues were harvested from 384 well-plates and washed twice in 1x PBS (Sigma P7059) subsequent to fixation in 3.7% paraformaldehyde (PFA) (Sigma F1635) at 4 °C for one hour. The 3.7% PFA was then removed and replaced with two washes of 1x PBS. The PBS was removed and replaced with liquid HistoGel (Thermo Fisher HG-4000-012) and left on ice for 30 minutes to solidify. The HistoGel pellet was placed into a histological cassette and processed using an enclosed tissue processor overnight. The HistoGel was then embedded using paraffin wax.
The formalin fixed paraffin embedded (FFPE) blocks were then sectioned at each time point at three 50 µm step levels with 8 × serial sections per level at 3 µm. H&E staining was performed on microtissue sections using Mayer’s Haematoxylin using a standard automated protocol. Standard automated immunohistochemistry (IHC) and immunofluorescence (IF) protocols were used for primary antibody detection at different dilutions (Supplementary Table 3) on microtissue sections. Diaminobenzadine (DAB) (Roche Diagnostics 760–159) was used to visualise positive staining in single-plex staining and Alkaline Phosphatase Fast Red (Roche Diagnostics 760–160) with DAB were used in dual staining, with a haematoxylin counterstain. […] A minimum of 15 microtissues per time point/treatment were evaluated. […]

[15] = Homo sapiens, 72 hours, geometric mean

CC(C)NCC(O)c1ccc(O)c(O)c1 (stereo not drawn) [Isoproterenol HCl]
IC50 (cardiac microtissues [1]; Homo sapiens): 59.2 µM
IC50 (cardiac microtissues [2]; [15]): > 100 µM
IC50 (cardiac microtissues [3]; Homo sapiens): 76.9 µM
Cmax [4]: 10 nM

CC(C(=O)O)c1cccc(C(=O)c2ccccc2)c1 (stereo not drawn) [Ketoprofen]
IC50 (cardiac microtissues [1]; Homo sapiens): > 100 µM
IC50 (cardiac microtissues [2]; [15]): 37.6 µM
IC50 (cardiac microtissues [3]; Homo sapiens): > 100 µM

CS(=O)(=O)CCNCc1ccc(-c2ccc3ncnc(Nc4ccc(OCc5cccc(F)c5)c(Cl)c4)c3c2)o1 [Lapatinib]
IC50 (cardiac microtissues [1]; Homo sapiens): 2.84 µM
ΔΨm modulated at multiple of total Cmax (cardiac microtissues [1]; mechanistic fingerprint): ≤ 1 times the total Cmax
IC50 (hCF [5]; 24 h): 21.6 µM
IC50 (hCF [5]; 72 h): 11 µM
IC50 (hiPS-CM [6]; 24 hours): 23.6 µM
IC50 (hiPS-CM [6]; 72 hours): 3.1 µM
IC50 (hCMEC [7]; 24 hours): 26.7 µM
IC50 (hCMEC [7]; 72 hours): 4.4 µM
IC50 (cardiac microtissues [2]; [15]): 12.9 µM
Cellular viability modulated at multiple of total Cmax (cardiac microtissues [2]; mechanistic fingerprint): ≤ 10 times the total Cmax
IC50 (hCF [8]; 24 h): 42.9 µM
IC50 (hCF [8]; 72 h): 28.8 µM
IC50 (hCF [9]; 24 h): 14.7 µM
IC50 (hCF [9]; 72 h): 11 µM
IC50 (cardiac microtissues [3]; Homo sapiens): > 100 µM
ER integrity modulated at multiple of total Cmax (cardiac microtissues [3]; mechanistic fingerprint): ≤ 100 times the total Cmax
IC50 (hiPS-CM [10]; 72 hours): > 100 µM
IC50 (hCMEC [11]; 24 hours): 16.2 µM
IC50 (hCMEC [11]; 72 hours): 3.07 µM
IC50 (hiPS-CM [12]; 24 hours): 31.9 µM
IC50 (hiPS-CM [12]; 72 hours): 23.6 µM
IC50 (hCMEC [13]; 24 hours): 5.47 µM
IC50 (hCMEC [13]; 72 hours): 11.6 µM
Cmax [4]: 4180 nM

COC(=O)Nc1nc2ccc(C(=O)c3ccccc3)cc2[nH]1 [Mebendazole]
IC50 (cardiac microtissues [1]; Homo sapiens): > 50 µM
IC50 (cardiac microtissues [2]; [15]): > 50 µM
IC50 (cardiac microtissues [3]; Homo sapiens): 5.97 µM
Cmax [4]: 2030 nM

CN(C)CCN(Cc1cccs1)c1ccccn1 [Methapyrilene]
Cmax [4]: 15300 nM

Nc1cc(N2CCCCC2)nc(N)[n+]1[O-] [Minoxidil]
IC50 (cardiac microtissues [1]; Homo sapiens): > 50 µM
IC50 (cardiac microtissues [2]; [15]): > 50 µM
IC50 (cardiac microtissues [3]; Homo sapiens): > 50 µM
Cmax [4]: 14800 nM

O=C1c2c(O)ccc(O)c2C(=O)c2c(NCCNCCO)ccc(NCCNCCO)c21 [Mitoxantrone diHCl]
IC50 (cardiac microtissues [1]; Homo sapiens): 0.98 µM
IC50 (cardiac microtissues [2]; [15]): 0.29 µM
IC50 (cardiac microtissues [3]; Homo sapiens): 1.1 µM

O=C1C[C@@H](c2ccc(O)cc2)Oc2cc(O)cc(O)c21 [Narigenin]
IC50 (cardiac microtissues [1]): > 100 µM
IC50 (cardiac microtissues [2]; 72 hours, geometric mean): 62.5 µM
IC50 (cardiac microtissues [3]): > 100 µM
Cmax [4]: 15400 nM

O=C(C1CCCCC1)N1CC(=O)N2CCc3ccccc3C2C1 (stereo not drawn) [Praziquantel]
IC50 (cardiac microtissues [1]; Homo sapiens): > 100 µM
IC50 (cardiac microtissues [2]; [15]): 10.1 µM
IC50 (cardiac microtissues [3]; Homo sapiens): 0.82 µM
Cmax [4]: 640 nM

CNC(=O)c1cc(Oc2ccc(NC(=O)Nc3ccc(Cl)c(C(F)(F)F)c3)cc2)ccn1 [Sorafenib Tosylate]
IC50 (cardiac microtissues [1]; Homo sapiens): 8.22 µM
IC50 (cardiac microtissues [2]; [15]): 8.72 µM
IC50 (cardiac microtissues [3]; Homo sapiens): 6.42 µM
IC50 (hESC-CMs): 15.2 µM
IC50 (H9c2 cells): 44.9 µM

CCN(CC)CCNC(=O)c1c(C)[nH]c(/C=C2\C(=O)Nc3ccc(F)cc32)c1C [Sunitinib Malate]
IC50 (cardiac microtissues [1]; Homo sapiens): 2.58 µM
IC50 (hCF [5]; 24 h): 16.5 µM
IC50 (hCF [5]; 72 h): 4 µM
IC50 (hiPS-CM [6]; 24 hours): 4.48 µM
IC50 (hiPS-CM [6]; 72 hours): 2.63 µM
IC50 (hCMEC [7]; 24 hours): 2.96 µM
IC50 (hCMEC [7]; 72 hours): 12.7 µM
Histopathological / morphological changes (cardiac microtissues [14]): clear reduction in overall cellularity
IC50 (cardiac microtissues [2]; Homo sapiens, 24 hours): 46.2 µM
IC50 (cardiac microtissues [2]; [15]): 8.23 µM
IC50 (hCF [8]; 24 h): 17.8 µM
IC50 (hCF [8]; 72 h): 11.6 µM
IC50 (hCF [9]; 24 h): 6.59 µM
IC50 (hCF [9]; 72 h): 0.37 µM
IC50 (cardiac microtissues [3]; Homo sapiens): 0.39 µM
IC50 (hiPS-CM [10]; 24 hours): 24.7 µM
IC50 (hiPS-CM [10]; 72 hours): 27.1 µM
IC50 (hCMEC [11]; 24 hours): 4.9 µM
IC50 (hCMEC [11]; 72 hours): 0.8 µM
IC50 (hiPS-CM [12]; 24 hours): 16.1 µM
IC50 (hiPS-CM [12]; 72 hours): 16.2 µM
IC50 (hCMEC [13]; 24 hours): 9.57 µM
IC50 (hCMEC [13]; 72 hours): 2.97 µM
Cmax [4]: 250 nM

CC(C)(C)c1ccc(C(O)CCCN2CCC(C(O)(c3ccccc3)c3ccccc3)CC2)cc1 (stereo not drawn) [Terfenadine]
IC50 (cardiac microtissues [1]; Homo sapiens): > 100 µM
IC50 (cardiac microtissues [2]; [15]): 13 µM
IC50 (cardiac microtissues [3]; Homo sapiens): 23.7 µM
Cmax [4]: 130 nM
